The subject of the assay is BDF1 mice, P388 leukemia ip, median survival T/C. The experiment in a line: NCI In Vivo Anticancer Drug Screen. Data for tumor model P388 Leukemia (intraperitoneal) in B6D2F1 (BDF1) mice. The conditions noted are these: endpoint: median survival time, higher = longer survival. Put shortly: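 Each value expresses how treatment altered survival: treated-mouse outcome over vehicle-mouse outcome, both groups bearing the transplanted tumour.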

The mark [1] stands for this setting: dose: 100.0 mg/kg/injection, schedule: Q01DX009 (ip), vehicle: Klucel (hydroxypropylcellulose) (HPC).
[2] abbreviates: dose: 100.0 mg/kg/injection, schedule: Q04DX003 (ip), vehicle: Klucel (hydroxypropylcellulose) (HPC).
Where [3] appears, read: dose: 200.0 mg/kg/injection, schedule: Q01DX009 (ip), vehicle: Klucel (hydroxypropylcellulose) (HPC).
Setting [4] is: dose: 200.0 mg/kg/injection, schedule: Q04DX003 (ip), vehicle: Klucel (hydroxypropylcellulose) (HPC).
Where [5] appears, read: dose: 400.0 mg/kg/injection, schedule: Q01DX009 (ip), vehicle: Klucel (hydroxypropylcellulose) (HPC).
Setting [6] is: dose: 400.0 mg/kg/injection, schedule: Q04DX003 (ip), vehicle: Klucel (hydroxypropylcellulose) (HPC).
Where [7] appears, read: dose: 50.0 mg/kg/injection, schedule: Q01DX009 (ip), vehicle: saline with Tween-80.
The mark [8] stands for this setting: dose: 100.0 mg/kg/injection, schedule: Q01DX009 (ip), vehicle: saline with Tween-80.
Where [9] appears, read: dose: 200.0 mg/kg/injection, schedule: Q01DX009 (ip), vehicle: saline with Tween-80.
The mark [10] stands for this setting: dose: 400.0 mg/kg/injection, schedule: Q01DX009 (ip), vehicle: saline with Tween-80.
[11] abbreviates: dose: 100.0 mg/kg/injection, schedule: Q04DX003 (ip), vehicle: saline with Tween-80.
Setting [12] is: dose: 200.0 mg/kg/injection, schedule: Q04DX003 (ip), vehicle: saline with Tween-80.
Where [13] appears, read: dose: 400.0 mg/kg/injection, schedule: Q04DX003 (ip), vehicle: saline with Tween-80.
[14] abbreviates: dose: 100.0 mg/kg/injection, schedule: Q01DX001 (ip), vehicle: saline with Tween-80.
[15] abbreviates: dose: 200.0 mg/kg/injection, schedule: Q01DX001 (ip), vehicle: saline with Tween-80.
[16] abbreviates: dose: 50.0 mg/kg/injection, schedule: Q04DX003 (ip), vehicle: saline.
The mark [17] stands for this setting: dose: 100.0 mg/kg/injection, schedule: Q04DX003 (ip), vehicle: saline.
Setting [18] is: dose: 200.0 mg/kg/injection, schedule: Q04DX003 (ip), vehicle: saline.
Where [19] appears, read: dose: 25.0 mg/kg/injection, schedule: Q04DX003 (ip), vehicle: saline with Tween-80.
The mark [20] stands for this setting: dose: 50.0 mg/kg/injection, schedule: Q04DX003 (ip), vehicle: saline with Tween-80.

The structures appear in SMILES notation. Values joined by “and” are separate entries in the source; they are usually repeats but may differ in a detail not shown here. Equal entries are not always repeated. Toxic doses and inconclusive results are not listed.

As to `COc1ccc(NC(=O)c2ccccc2Cl)cc1`, the T/C under setting [1] is 100 % of control; the T/C under setting [2] is 104 % of control; the T/C under setting [3] is 95 % of control; the T/C under setting [4] is 91 % of control; the T/C under setting [5] was 104 % of control; the T/C under setting [6] is 112 % of control.
`CCC(C)C(NC(=O)CCN)C(=O)O` (configuration not stated): the T/C (dose: 50.0 mg/kg/injection, schedule: Q01DX005 (ip), vehicle: saline) was 104 % of control; the T/C (dose: 100.0 mg/kg/injection, schedule: Q01DX005 (ip), vehicle: saline) is 103 % of control; the T/C (dose: 200.0 mg/kg/injection, schedule: Q01DX005 (ip), vehicle: saline) is 100 % of control.
In the case of `Cc1cc(C)c(C#N)c(=O)[nH]1`, the T/C was 99 % of control (dose: 50.0 mg/kg/injection, schedule: Q01DX009 (ip), vehicle: saline) and 94 % of control (dose: 100.0 mg/kg/injection, schedule: Q01DX009 (ip), vehicle: saline).
As for `NC(N)=Nc1ccc(OC(=O)c2ccc(N=C(N)N)cc2)cc1`, the T/C (dose: 1.56 mg/kg/injection, schedule: Q01DX009 (ip), vehicle: water) was 106 % of control; the T/C (dose: 3.12 mg/kg/injection, schedule: Q01DX009 (ip), vehicle: water) is 94 % of control; the T/C (dose: 6.25 mg/kg/injection, schedule: Q01DX009 (ip), vehicle: water) was 103 % of control; the T/C (dose: 12.5 mg/kg/injection, schedule: Q01DX009 (ip), vehicle: water) was 110 % of control; the T/C (dose: 25.0 mg/kg/injection, schedule: Q01DX009 (ip), vehicle: water) is 103 % of control.
`CN1C(=O)NNC(=O)c2ccccc21`: the T/C was 106 % of control under setting [7], 100 % of control under setting [8] and 97 % of control under setting [9].
With `CC(=O)[O][Hg][c]1c(C)c(C)c(C)c(C)c1C`, the T/C is 98 % of control (dose: 3.12 mg/kg/injection, schedule: Q01DX009 (ip), vehicle: Klucel (hydroxypropylcellulose) (HPC)); 109 % of control (dose: 6.25 mg/kg/injection, schedule: Q01DX009 (ip), vehicle: Klucel (hydroxypropylcellulose) (HPC)); 90 % of control and 107 % of control (dose: 12.5 mg/kg/injection, schedule: Q01DX009 (ip), vehicle: Klucel (hydroxypropylcellulose) (HPC)).
With `[I][Hg][CH2]C1OCCOC1[CH2][Hg][I]` (configuration not stated), the T/C is 116 % of control under setting [8] and 116 % of control under setting [9].
`CCOC(=O)C(O)c1cccc(OC)c1` (configuration not stated): the T/C under setting [8] was 100 % of control; the T/C (dose: 100.0 mg/kg/injection, schedule: Q04DX003 (ip), vehicle: saline sonified) is 118 % of control; the T/C under setting [9] is 100 % of control; the T/C (dose: 200.0 mg/kg/injection, schedule: Q04DX003 (ip), vehicle: saline sonified) was 100 % of control; the T/C under setting [10] was 104 % of control; the T/C (dose: 400.0 mg/kg/injection, schedule: Q04DX003 (ip), vehicle: saline sonified) was 100 % of control.
For `CC(C)CC(Br)C(=O)NC(CC(C)C)C(=O)O` (configuration not stated), the T/C reads like this: under setting [11], 104 % of control; under setting [12], 100 % of control; under setting [13], 109 % of control.
Turning to `Clc1ccccc1N1CN(c2ccccc2Cl)CN(c2ccccc2Cl)C1`, the T/C is 104 % of control under setting [7], 100 % of control under setting [8] and 100 % of control under setting [9].
As for `O=C1C(OC(=O)c2ccccc2)=C(c2ccc(O)cc2)C(=O)C(OC(=O)c2ccccc2)=C1c1ccc(O)cc1`, the T/C was 100 % of control under setting [1], 100 % of control under setting [3] and 92 % of control under setting [5].
As to `CCC12C=CCN3CCC4(c5ccc(OC)cc5N(C)C4C(O)(C(=O)OC)C1OC(C)=O)C32` (configuration not stated) (tested in a mixture with another compound), the T/C by setting is: (dose: 0.06 mg/kg/injection, schedule: Q01DX009 (ip), vehicle: water) 86 % of control and 95 % of control; (dose: 0.12 mg/kg/injection, schedule: Q01DX009 (ip), vehicle: water) 90 % of control; (dose: 0.25 mg/kg/injection, schedule: Q01DX009 (ip), vehicle: water) 86 % of control and 104 % of control; (dose: 0.5 mg/kg/injection, schedule: Q01DX009 (ip), vehicle: water) 90 % of control; (dose: 1.0 mg/kg/injection, schedule: Q01DX009 (ip), vehicle: water) 86 % of control and 90 % of control; (dose: 2.0 mg/kg/injection, schedule: Q01DX009 (ip), vehicle: water) 100 % of control and 90 % of control.
As to `CCc1cccc(CC)c1-n1c(C)ccc1-c1ccccc1`, the T/C is, setting by setting: (dose: 50.0 mg/kg/injection, schedule: Q01DX009 (ip), vehicle: saline + alcohol) 106 % of control; (dose: 100.0 mg/kg/injection, schedule: Q01DX009 (ip), vehicle: saline + alcohol) 101 % of control; (dose: 200.0 mg/kg/injection, schedule: Q01DX009 (ip), vehicle: saline + alcohol) 106 % of control.
For `CC(=O)OCC(=O)[C@@]1(O)CC[C@H]2[C@@H]3CCC4=CC(=O)CC[C@]4(C)[C@H]3[C@@H](O)C[C@@]21C`, the T/C reads like this: (dose: 90.0 mg/kg/injection, schedule: Q01DX010 (sc), vehicle: steriod suspending solution) 100 % of control; under setting [8], 100 % of control; (dose: 130.0 mg/kg/injection, schedule: Q01DX010 (sc), vehicle: steriod suspending solution) 88 % of control; under setting [9], 110 % of control; under setting [10], 90 % of control.
As for `O=C1c2c(Cl)cccc2C(c2ccccc2)c2cccc(Cl)c21`, the T/C under setting [7] was 95 % of control, the T/C under setting [8] was 104 % of control and the T/C under setting [9] is 97 % of control.
Take `COc1ccc(C2NC(=O)NC2=O)cc1OC` (configuration not stated): the T/C is 100 % of control (dose: 50.0 mg/kg/injection, schedule: Q01DX001 (ip), vehicle: saline sonified); 100 % of control (dose: 100.0 mg/kg/injection, schedule: Q01DX001 (ip), vehicle: saline sonified); 100 % of control (dose: 200.0 mg/kg/injection, schedule: Q01DX001 (ip), vehicle: saline sonified).
In the case of `O=[N+]([O-])c1cc(Br)c(N2CCCC2)cc1N1CCCC1`, the T/C reads like this: under setting [1], 104 % of control; under setting [2], 100 % of control; under setting [3], 100 % of control; under setting [4], 95 % of control; under setting [5], 100 % of control; under setting [6], 110 % of control.
On to `S=C(Nc1ccccc1)N(C1CCCCC1)C1CCCCC1`, for which the T/C by setting is: under setting [14], 100 % of control; under setting [15], 103 % of control; under setting [9], 155 % of control; (dose: 400.0 mg/kg/injection, schedule: Q01DX001 (ip), vehicle: saline with Tween-80) 103 % of control.
As to `C(=NC12CC3CC(CC(C3)C1)C2)c1ccccc1`, the T/C by setting is: (dose: 25.0 mg/kg/injection, schedule: Q04DX003 (ip), vehicle: saline) 105 % of control; under setting [16], 99 % of control; under setting [17], 107 % of control; under setting [18], 105 % of control.
With `COc1ccc(C2C=CC(c3ccccc3)C(c3ccccc3)C2[N+](=O)[O-])cc1OC` (configuration not stated), the T/C is 100 % of control under setting [11], 100 % of control under setting [12] and 90 % of control under setting [13].
Consider `Cc1ccc(C)c(CCN)c1`, for which the T/C runs as follows: (dose: 25.0 mg/kg/injection, schedule: Q01DX009 (ip), vehicle: saline with Tween-80) 122 % of control; under setting [19], 100 % of control; under setting [7], 104 % of control; under setting [20], 100 % of control; under setting [11], 100 % of control.
On to `[O]=[Sb]([c]1ccccc1)([c]1ccccc1)[c]1ccccc1`, for which the T/C was 106 % of control under setting [19], 101 % of control under setting [20] and 114 % of control under setting [11].
`Cc1ccc(Cl)c([N+](=O)[O-])c1N`: the T/C is 104 % of control under setting [7], 87 % of control under setting [8] and 91 % of control under setting [9].
Take `ICC1(CI)CCCCC1`: the T/C under setting [14] is 100 % of control and the T/C under setting [15] is 108 % of control.
As to `c1ccc(C(NC2CC3CCC2C3)c2ccccc2)cc1` (configuration not stated), the T/C reads like this: under setting [16], 108 % of control; under setting [17], 108 % of control; under setting [18], 108 % of control.
